Assays:
HepG2 cells = assay: LDH cytotoxicity assay, time dependent; format: cell-based, human; settings: 10 μM, up to 4 days
Protocol: HepG2 cells were maintained and used with RPMI 1640 (R2405, Sigma-Aldrich) supplemented with 10% fetal bovine serum (F7524, Sigma-Aldrich), 1% P/S (P4333, Sigma-Aldrich). 20,000 cells per well of HepG2 cells were seeded into a 96-well plate and triplicated for MTT assay and LDH assay. Cell viability was measured by MTT assay (M6494, ThermoFisher) and cytotoxicity was measured by LDH assay kit (ab65393, abcam) by following manufacturer's instructions. Optical density (O.D) was numerated using a microplate reader (Hidex Sense Meta Plus).

PARP = assay: Western blot, cleaved PARP; format: cell-based, human; settings: 10 μM, 2 days
Protocol: (§1) HepG2 cells were seeded into a 6-well plate at 400,000 cells per well. After treatment with 10 μM of JNK-IN-5A and its derivatives for two days, lysates were harvested with CelLytic M (C2978, Sigma-Aldrich). 20 μg lysate was prepared with 2× Laemmli Sample Buffer (1610737, Biorad). SDS PAGE were performed using Mini-PROTEAN® TGX™ Precast Gels (Bio-Rad) and transferred using Trans-Blot® Turbo™ Transfer System (Bio-Rad). Primary antibody, PARP (95425, Cell signalling), Caspase 3 (ab32042, abcam), Bcl-2 (ab182858), STAT1 (HPA000982, Merk), PKL (06653, Sigma), PKM (4053S, Cell signalling), GAPDH (ab8245, abcam), P53 (ab32389, abcam), p21 (ab109199, abcam), p-S349 p62 (ab211324, abcam), p62 (ab109012, abcam), c-Myc (ab32072, abcam), GPX4 (ab125066, abcam), MMP9 (MA5-32705, Invitrogen), β-actin (ab8227, abcam), and α-tubulin (ab7291, abcam) were blotted overnight and Goat Anti-Rabbit HRP (ab205718) and goat anti-mouse IgG-HRP (sc2005, Santa Cruz Biotechnology, Inc.) were blotted for secondary antibody for one hour. ImageQuantTMLAS 500 (29-0050-63, GE) was used to detect protein bands.

Caspase 3 = assay: Western blot, active caspase 3; format: cell-based, human; settings: 10 μM, 2 days
Protocol: as §1

JNK1/2/3 = assay: Western blot, JNK1/2/3 P54 and p46 isoforms; format: cell-based, human; settings: 10 μM, 2 days
Protocol: HepG2 cells were seeded into a 6-well plate at 400,000 cells per well. After treatment with 10 μM of JNK-IN-5A and its derivatives for two days, lysates were harvested with CelLytic M (C2978, Sigma-Aldrich). […] SDS PAGE were performed using Mini-PROTEAN® TGX™ Precast Gels (Bio-Rad) and transferred using Trans-Blot® Turbo™ Transfer System (Bio-Rad). […] ImageQuantTMLAS 500 (29-0050-63, GE) was used to detect protein bands.

p53 = assay: Nuclear protein western blot, p53; format: cell-based, human; settings: 10 μM, 2 days; compared to sorafenib and regorafenib
Protocol: as §1

GPX4 = assay: Western blot, GPX4; format: cell-based, human; settings: compared to the control
Protocol: as §1

[1] = In vivo toxicological study in rats: haematology; design: species or system rats of the Wistar strain
Protocol: Forty-two male and forty-two female rats of the Wistar strain were allocated to the study. Three groups of three males and three females were given doses of 30, 100 and 300 mg/kg of target compounds (Table 8). The vehicle was 1.5 w/w % HPMC, 1.5 w/w % PS80 in 10 mM PBS, pH 7 and dose volume were 5 mL/kg. The animals were acclimatised at least 14 day prior to the study and exposed to a 12 hours light, 12 hours dark light cycle. The formulations were administered via oral gavage. Administration occurred once daily in the morning for seven consecutive days. Blood for scheduled haematology and plasma chemistry were taken at necropsy. For plasma chemistry, 0.6 ml blood (lithium heparin) per animal and for haematology, 0.5 ml blood (K2EDTA) per animal. The blood and plasma were analysed using Exigo analyzer and Vetscan equipment. Blood was analysed within 60 min of sampling. On the morning of analysis, the Exigo analyzer was checked against a reference sample provided by the manufacturer, and a control sample analysis cycle was performed (Table 9).

[2] = female, 30 mg/kg oral daily 7 d
[3] = female, 100 mg/kg oral daily 7 d
[4] = female, 300 mg/kg oral daily 7 d

In the case of `COc1ccc(C(=O)Nc2sc3c(c2C#N)CCCCC3)cc1OC` [PKL-A135, N-(3-cyano-5,6,7,8-tetrahydro-4H-cyclohepta[b]thiophen-2-yl)-3,4-dimethoxy-benzamide], the “necrotic cell death (LDH)” value (HepG2 cells) is reported as “pronounced necrotic cell death from day 1 to day 4”, the “increase in cleaved PARP vs untreated control” value (PARP) is reported as 78.31 times and the “active caspase 3 levels” value (Caspase 3) is reported as 11.85 times. For the same compound, the “JNK1/2/3 p46 expression” value (JNK1/2/3) was 0.77 times, the “nuclear-localized p53” value (p53) was “significant increase” and the GPX4 expression levels (GPX4) was 0.58 times. The GRAN [1, 2] was 0.97 10^9/l, the HCT [1, 2] was 41.7% and the HGB [1, 2] was 14.2 g/dL. The LYM [1, 2] was 5.4 10^9/l, the MCH [1, 2] was 19.5 pg and the MCHC [1, 2] was 34.1 g/dL. For the same compound, the MCV [1, 2] was 57.4 fL, the MONO [1, 2] was 0.17 10^9/l and the PLT [1, 2] was 1014 10^9/l. For the same compound, the RBC [1, 2] was 7.26 10^12/l, the RDW % [1, 2] was 14.2% and the WBC [1, 2] was 6.6 10^9/l. The GRAN [1, 3] was 1.33 10^9/l, the HCT [1, 3] was 42.1% and the HGB [1, 3] was 14.4 g/dL. For the same compound, the LYM [1, 3] was 6.7 10^9/l, the MCH [1, 3] was 19.9 pg and the MCHC [1, 3] was 34.1 g/dL. The MCV [1, 3] was 58.4 fL, the MONO [1, 3] was 0.27 10^9/l and the PLT [1, 3] was 978 10^9/l. The RBC [1, 3] was 7.21 10^12/l, the RDW % [1, 3] was 13.7% and the WBC [1, 3] was 8.3 10^9/l. The GRAN [1, 4] was 1.10 10^9/l, the HCT [1, 4] was 42.8% and the HGB [1, 4] was 14.7 g/dL. The LYM [1, 4] was 5.1 10^9/l, the MCH [1, 4] was 20.8 pg and the MCHC [1, 4] was 34.2 g/dL. The MCV [1, 4] was 60.8 fL, the MONO [1, 4] was 0.20 10^9/l and the PLT [1, 4] was 1011 10^9/l. For the same compound, the RBC [1, 4] was 7.04 10^12/l, the RDW % [1, 4] was 13.8% and the WBC [1, 4] was 6.4 10^9/l. For the same compound, the GRAN ([1]; male, 30 mg/kg oral daily 7 d) was 1.83 10^9/l, the HCT ([1]; male, 30 mg/kg oral daily 7 d) was 44.3% and the HGB ([1]; male, 30 mg/kg oral daily 7 d) was 15 g/dL. The LYM ([1]; male, 30 mg/kg oral daily 7 d) was 6.5 10^9/l, the MCH ([1]; male, 30 mg/kg oral daily 7 d) was 19.7 pg and the MCHC ([1]; male, 30 mg/kg oral daily 7 d) was 33.9 g/dL. For the same compound, the MCV ([1]; male, 30 mg/kg oral daily 7 d) was 58.2 fL, the MONO ([1]; male, 30 mg/kg oral daily 7 d) was 0.30 10^9/l and the PLT ([1]; male, 30 mg/kg oral daily 7 d) was 841 10^9/l. The RBC ([1]; male, 30 mg/kg oral daily 7 d) was 7.62 10^12/l, the RDW % ([1]; male, 30 mg/kg oral daily 7 d) was 14.1% and the WBC ([1]; male, 30 mg/kg oral daily 7 d) was 8.6 10^9/l. The GRAN ([1]; male, 100 mg/kg oral daily 7 d) was 1.17 10^9/l, the HCT ([1]; male, 100 mg/kg oral daily 7 d) was 43.2% and the HGB ([1]; male, 100 mg/kg oral daily 7 d) was 14.6 g/dL. For the same compound, the LYM ([1]; male, 100 mg/kg oral daily 7 d) was 6.1 10^9/l, the MCH ([1]; male, 100 mg/kg oral daily 7 d) was 19.6 pg and the MCHC ([1]; male, 100 mg/kg oral daily 7 d) was 33.7 g/dL. The MCV ([1]; male, 100 mg/kg oral daily 7 d) was 58.1 fL, the MONO ([1]; male, 100 mg/kg oral daily 7 d) was 0.17 10^9/l and the PLT ([1]; male, 100 mg/kg oral daily 7 d) was 815 10^9/l. For the same compound, the RBC ([1]; male, 100 mg/kg oral daily 7 d) was 7.43 10^12/l, the RDW % ([1]; male, 100 mg/kg oral daily 7 d) was 14.4% and the WBC ([1]; male, 100 mg/kg oral daily 7 d) was 7.4 10^9/l. The GRAN ([1]; male, 300 mg/kg oral daily 7 d) was 1.13 10^9/l, the HCT ([1]; male, 300 mg/kg oral daily 7 d) was 43.8% and the HGB ([1]; male, 300 mg/kg oral daily 7 d) was 14.9 g/dL. The LYM ([1]; male, 300 mg/kg oral daily 7 d) was 6.2 10^9/l, the MCH ([1]; male, 300 mg/kg oral daily 7 d) was 20.7 pg and the MCHC ([1]; male, 300 mg/kg oral daily 7 d) was 34 g/dL. For the same compound, the MCV ([1]; male, 300 mg/kg oral daily 7 d) was 60.9 fL, the MONO ([1]; male, 300 mg/kg oral daily 7 d) was 0.20 10^9/l and the PLT ([1]; male, 300 mg/kg oral daily 7 d) was 924 10^9/l. The RBC ([1]; male, 300 mg/kg oral daily 7 d) was 7.20 10^12/l, the RDW % ([1]; male, 300 mg/kg oral daily 7 d) was 14.0% and the WBC ([1]; male, 300 mg/kg oral daily 7 d) was 7.5 10^9/l.

Reference: US20260234159A1, “SMALL MOLECULE TREATMENT OF FATTY LIVER DISEASE AND HCC” (SCANDIEDGE THERAPEUTICS AB, priority 2023, published 2026)
